Measurements reported in PubChem BioAssay AID977614 (Broad Institute, 2014).
Active and inactive are the calls of the source.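 How the source made its calls: active means parasite count per well reduced by over 3 SD from the mean, with host cell number above 80% of untreated; inactive means the rest.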

Each compound was assayed on L. donovani amastigotes in THP-1 macrophages, DAPI imaging, 72 h (assay: L. donovani intracellular amastigote growth inhibitors, imaging, THP-1 host macrophages, single concentration (AID 977614);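 further: signal is the parasite per host cell ratio from DAPI stained kinetoplasts and nuclei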).
In the case of `OC[C@@H]1[C@H](c2ccc(-c3ccc(F)cc3)cc2)[C@H](CNC2CCCC2)N1CCC(F)(F)F`, the AC50 is reported as > 10 µM (inactive).
For `COCCN(C[C@@H]1[C@@H](c2ccccc2)[C@H](CO)N1C(=O)C1CC1)C(C)=O`, the AC50 was > 10 µM (inactive).
`O=C(C1CC1)N1C[C@@H]2[C@H](c3ccccc31)[C@@H](CO)N2C(=O)c1ccccc1` was tested, and the AC50 was > 10 µM (inactive).
`CCCNC(=O)N(C)C[C@@H]1[C@@H](c2ccccc2)[C@H](CO)N1C(=O)c1ccccc1` was tested, and the AC50 was > 10 µM (inactive).
`CCN(C[C@@H]1N[C@@H](CO)[C@H]1c1ccc(-c2ccc(F)cc2)cc1)C(=O)CN(C)C` was tested, and the AC50 was > 10 µM (inactive).
In the case of `O=C(CC1CC1)N1[C@H](CO)[C@@H]2c3ccccc3N(S(=O)(=O)c3ccccc3F)C[C@@H]21`, the AC50 is reported as > 10 µM (inactive).
For `CC(=O)N1[C@@H](CO)[C@@H](c2ccccc2)[C@@H]1CNC(=O)CN1CCOCC1`, the AC50 was > 10 µM (inactive).
In the case of `O=C(CN1CCOCC1)NC[C@@H]1N[C@@H](CO)[C@H]1c1ccc(-c2ccccc2)cc1`, the AC50 is reported as > 10 µM (inactive).
For `O=C(C1CCC1)N1C[C@@H]2[C@H](c3ccccc31)[C@H](CO)N2Cc1ccccc1`, the AC50 was > 10 µM (inactive).
`CN1[C@@H]2CN(C(=O)C3CCCCC3)c3ccccc3[C@@H]2[C@@H]1CO` was tested, and the AC50 was > 10 µM (inactive).
For `CNC[C@@H]1OCc2cn(nn2)CCCC(=O)N([C@H](C)CO)C[C@@H]1C`, the AC50 was > 10 µM (inactive).
For `C[C@H](CO)N1C[C@H](C)[C@@H](CN(C)C(=O)NC2CCCCC2)OCc2cn(nn2)CCCC1=O`, the AC50 was > 10 µM (inactive).
With `CC(=O)N1[C@H](CO)[C@H]2c3ccccc3N(C(=O)c3ccc(F)cc3)C[C@H]21` the AC50 was > 10 µM (inactive).
`C[C@H](CO)N1C[C@H](C)[C@@H](CN(C)C(=O)NC2CCCC2)OCc2cnnn2CCCC1=O` was tested, and the AC50 was > 10 µM (inactive).
For `COc1ccc(NC(=O)N(C)C[C@H]2OCc3cnnn3CCCC(=O)N([C@@H](C)CO)C[C@@H]2C)c(OC)c1`, the AC50 was > 10 µM (inactive).
For `CCNC[C@@H]1[C@@H](c2ccc(-c3ccc(F)cc3)cc2)[C@@H](CO)N1C(=O)C1CC1`, the AC50 was > 10 µM (inactive).
In the case of `C[C@H](CO)N1C[C@H](C)[C@@H](CN(C)C(=O)Nc2ccnc(N3CCOCC3)c2)OCc2cnnn2CCCC1=O`, the AC50 is reported as > 10 µM (inactive).
For `CCC(=O)N1[C@H](CN(CC)C(=O)c2cccc(F)c2)[C@@H](c2ccccc2)[C@@H]1CO`, the AC50 was > 10 µM (inactive).
With `Cc1noc(C)c1NC(=O)N(C)C[C@@H]1OCc2cnnn2CCCC(=O)N([C@H](C)CO)C[C@H]1C` the AC50 was > 10 µM (inactive).
With `C[C@H]1CN([C@@H](C)CO)C(=O)CCCn2nncc2CO[C@H]1CN(C)C(=O)Nc1ccccc1C(F)(F)F` the AC50 was > 10 µM (inactive).
In the case of `O=C(NC[C@H]1[C@H](c2ccccc2)[C@H](CO)N1C(=O)C1CCC1)NC1CCCC1`, the AC50 is reported as > 10 µM (inactive).
With `O=C(C1CCOCC1)N1C[C@H]2[C@@H](c3ccccc31)[C@H](CO)N2C(=O)Nc1ccccc1F` the AC50 was > 10 µM (inactive).
For `Cc1noc(C)c1NC(=O)N(C)C[C@@H]1OCc2cn(nn2)CCCC(=O)N([C@@H](C)CO)C[C@H]1C`, the AC50 was > 10 µM (inactive).
With `CN(C[C@H]1N[C@@H](CO)[C@H]1c1ccc(-c2cccc(F)c2)cc1)C(=O)CC1CC1` the AC50 was > 10 µM (inactive).
In the case of `C[C@H](CO)N1C[C@H](C)[C@H](CN(C)Cc2cccc3c2OCCCO3)OCc2cnnn2CCCC1=O`, the AC50 is reported as > 10 µM (inactive).
For `C[C@@H]1CN([C@@H](C)CO)C(=O)CCCn2cc(nn2)CO[C@H]1CN(C)C(=O)CCC(F)(F)F`, the AC50 was > 10 µM (inactive).
`COCC(=O)N1[C@@H](CO)[C@@H]2c3ccccc3NC[C@@H]21` was tested, and the AC50 was > 10 µM (inactive).
`COc1ccccc1NC(=O)N1C[C@H]2[C@@H](c3ccccc31)[C@H](CO)N2Cc1ccc2c(c1)OCO2` was tested, and the AC50 was > 10 µM (inactive).
For `COCCN(C[C@@H]1[C@@H](c2ccccc2)[C@H](CO)N1C(C)=O)C(=O)c1cccnc1`, the AC50 was > 10 µM (inactive).
For `COc1ccccc1CN1[C@H](CO)[C@H]2c3ccccc3N(C(=O)c3cccnc3)C[C@H]21`, the AC50 was > 10 µM (inactive).
In the case of `C[C@H](CO)N1C[C@H](C)[C@H](CN(C)C(=O)c2ccc(N3CCN(C)CC3)cc2)OCc2cn(nn2)CCCC1=O`, the AC50 is reported as > 10 µM (inactive).
For `CC(=O)N1[C@@H](CO)[C@H](c2ccccc2)[C@@H]1CNC(=O)CN1CCOCC1`, the AC50 was > 10 µM (inactive).
In the case of `C[C@@H]1CN([C@@H](C)CO)C(=O)CCCn2nncc2CO[C@@H]1CN(C)C(=O)c1ccc2ccn(C)c2c1`, the AC50 is reported as > 10 µM (inactive).
`CCC(=O)N1[C@H](CO)[C@@H](c2ccccc2)[C@@H]1CN(C)C(=O)CN1CCOCC1` was tested, and the AC50 was > 10 µM (inactive).
`CN(C[C@H]1N[C@@H](CO)[C@H]1c1ccc(-c2ccc(F)cc2)cc1)C(=O)C1CCC1` was tested, and the AC50 was > 10 µM (inactive).
With `C[C@H]1CN([C@@H](C)CO)C(=O)CCCn2nncc2CO[C@H]1CN(C)Cc1ccc2cccnc2c1` the AC50 was > 10 µM (inactive).
In the case of `C[C@H]1CN([C@@H](C)CO)C(=O)CCCn2nncc2CO[C@H]1CN(C)C(=O)c1ccc2ccn(C)c2c1`, the AC50 is reported as > 10 µM (inactive).
For `COc1ccccc1CN1[C@H](CO)[C@@H]2c3ccccc3N(C(=O)C3CCOCC3)C[C@@H]21`, the AC50 was > 10 µM (inactive).
In the case of `C[C@@H]1CN([C@H](C)CO)C(=O)CCCn2nncc2CO[C@H]1CN(C)S(=O)(=O)c1ccc2c(c1)OCCCO2`, the AC50 is reported as > 10 µM (inactive).
With `COc1ccccc1S(=O)(=O)N(C)C[C@@H]1OCc2cn(nn2)CCCC(=O)N([C@@H](C)CO)C[C@@H]1C` the AC50 was > 10 µM (inactive).
`CC(=O)N1[C@@H](CO)[C@H](c2ccccc2)[C@@H]1CN(C)S(=O)(=O)c1ccccc1` was tested, and the AC50 was > 10 µM (inactive).
In the case of `O=C(CN1CCOCC1)N1[C@H](CO)[C@@H]2c3ccccc3NC[C@@H]21`, the AC50 is reported as > 10 µM (inactive).
In the case of `CN1[C@@H](CO)[C@@H]2c3ccccc3N(C(=O)Nc3cc(F)ccc3F)C[C@@H]21`, the AC50 is reported as > 10 µM (inactive).
In the case of `O=C(NC[C@H]1[C@H](c2ccccc2)[C@H](CO)N1Cc1cccnc1)c1ccccn1`, the AC50 is reported as > 10 µM (inactive).
In the case of `C/C=C/c1ccc([C@H]2[C@H](CO)N(C(C)=O)[C@H]2CN(CC)C(=O)CN(C)C)cc1`, the AC50 is reported as > 10 µM (inactive).
`C[C@@H]1CN([C@@H](C)CO)C(=O)CCCn2cc(nn2)CO[C@@H]1CN(C)S(=O)(=O)c1cccc(C#N)c1` was tested, and the AC50 was > 10 µM (inactive).
`O=C(CC(F)(F)F)N1C[C@H]2[C@@H](c3ccccc31)[C@@H](CO)N2CC1CCOCC1` was tested, and the AC50 was > 10 µM (inactive).
`C/C=C/c1ccc([C@@H]2[C@@H](CO)N(C(C)=O)[C@H]2CN(CC)C(=O)CN(C)C)cc1` was tested, and the AC50 was > 10 µM (inactive).
`O=C(c1ccccc1F)N1C[C@H]2[C@@H](c3ccccc31)[C@@H](CO)N2Cc1ccc2c(c1)OCO2` was tested, and the AC50 was > 10 µM (inactive).
With `COc1ccc(NC(=O)N(C)C[C@@H]2OCc3cnnn3CCCC(=O)N([C@H](C)CO)C[C@H]2C)c(OC)c1` the AC50 was > 10 µM (inactive).
With `COc1ccccc1S(=O)(=O)N(C)C[C@@H]1OCc2cn(nn2)CCCC(=O)N([C@H](C)CO)C[C@@H]1C` the AC50 was > 10 µM (inactive).
For `O=C(CC1CC1)NC[C@H]1N[C@H](CO)[C@@H]1c1ccc(-c2ccc(F)cc2)cc1`, the AC50 was > 10 µM (inactive).
For `O=C(CC(F)(F)F)N1C[C@H]2[C@@H](c3ccccc31)[C@@H](CO)N2C(=O)c1ccncc1`, the AC50 was > 10 µM (inactive).
`C[C@@H]1CN([C@H](C)CO)C(=O)CCCn2nncc2CO[C@@H]1CN(C)C(=O)Nc1ccc2c(c1)OCCO2` was tested, and the AC50 was > 10 µM (inactive).
